The term IC50 denotes the point on the concentration scale where inhibition reaches its midpoint.

Data on 18 compounds can be found in patent publication US9157077B2, “Aminopyrimidine kinase inhibitors” (Jasco Pharmaceuticals, LLC, priority 2009, dated 2015).

SMILES strings stand for the structures.

What all share (assay): IC50 of Compound (nM) (ATP present at Km of enzyme), Table 30
Holding throughout (format): biochemical

Assay [1] deals with Enzyme (kinases of Table 30) (Homo sapiens, UniProt Q9P1W9). The following applies: Pim-2(h), ATP present at Km of enzyme; read-out: IC50 of Compound, Pim-2(h).
Sequence of Enzyme (kinases of Table 30) (Homo sapiens, UniProt Q9P1W9) (Q9P1W9 whole entry): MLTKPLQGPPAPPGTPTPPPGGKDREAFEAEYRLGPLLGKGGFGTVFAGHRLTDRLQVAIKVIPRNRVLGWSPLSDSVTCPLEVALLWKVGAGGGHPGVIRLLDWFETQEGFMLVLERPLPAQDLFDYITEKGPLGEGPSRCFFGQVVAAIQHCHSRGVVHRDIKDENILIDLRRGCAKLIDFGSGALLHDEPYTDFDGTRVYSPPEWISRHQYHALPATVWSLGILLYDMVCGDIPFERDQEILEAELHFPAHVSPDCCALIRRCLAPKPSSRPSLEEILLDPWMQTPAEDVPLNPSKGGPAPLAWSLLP
The target in assay [2] is Enzyme (kinases of Table 30) (Homo sapiens, UniProt Q86V86). The following applies: Pim-3(h), ATP present at Km of enzyme; read-out: IC50 of Compound, Pim-3(h).
Assay [3] deals with T1, Enzyme (kinases of Table 30) (Homo sapiens, UniProt P68400).
T1 construct: IC50 of Compound, CK2(h); other: CK2(h), ATP present at Km of enzyme
T1 sequence (P68400 whole entry): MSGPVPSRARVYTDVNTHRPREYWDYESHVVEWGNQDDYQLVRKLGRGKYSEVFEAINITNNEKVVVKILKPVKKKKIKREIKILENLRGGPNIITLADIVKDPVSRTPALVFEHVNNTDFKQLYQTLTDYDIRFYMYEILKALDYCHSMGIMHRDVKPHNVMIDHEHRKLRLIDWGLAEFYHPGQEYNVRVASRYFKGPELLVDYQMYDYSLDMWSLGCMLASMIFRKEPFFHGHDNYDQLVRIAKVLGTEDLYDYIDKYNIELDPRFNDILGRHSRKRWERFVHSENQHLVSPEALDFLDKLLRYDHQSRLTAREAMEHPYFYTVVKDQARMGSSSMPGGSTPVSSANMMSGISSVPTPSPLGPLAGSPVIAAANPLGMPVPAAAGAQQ
The following applies: CK2(h), ATP present at Km of enzyme.

The target in assay [4] is Enzyme (kinases of Table 30) (Homo sapiens, UniProt P11309). The following applies: Pim-1(h), ATP present at Km of enzyme; read-out: IC50 of Compound, Pim-1(h).
Sequence of Enzyme (kinases of Table 30) (Homo sapiens, UniProt P11309) (P11309 whole entry): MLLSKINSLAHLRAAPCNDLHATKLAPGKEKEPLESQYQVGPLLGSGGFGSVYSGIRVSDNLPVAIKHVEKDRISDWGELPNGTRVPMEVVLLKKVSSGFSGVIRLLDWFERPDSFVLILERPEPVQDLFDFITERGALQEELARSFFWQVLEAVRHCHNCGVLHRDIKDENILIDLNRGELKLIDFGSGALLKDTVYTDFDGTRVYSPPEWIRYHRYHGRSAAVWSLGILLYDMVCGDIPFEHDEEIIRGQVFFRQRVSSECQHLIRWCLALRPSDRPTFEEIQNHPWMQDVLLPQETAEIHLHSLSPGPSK

For the compound `O=C1NC(=O)/C(=C/c2ccnc(N3CCC(CNCc4cccnc4)CC3)n2)S1` [compound 176], the IC50 is 108 nM in assay [1], 18 nM in assay [2], 669 nM in assay [3] and 487 nM in assay [4].

Take `O=C1NC(=O)/C(=C/c2ccnc(N3CCC(CCO)CC3)n2)S1` [compound 106]: the IC50 in assay [1] was determined as 127 nM; in assay [2], 298 nM; in assay [3], 361 nM; in assay [4], 166 nM.

As to `O=C1NC(=O)/C(=C/c2ccnc(N[C@H]3CCCNC3)n2)S1` [compound 144], the IC50 was found to be 18 nM in assay [1], 9 nM in assay [2], 23 nM in assay [3] and 78 nM in assay [4].

For `CCCCN(C)c1nccc(/C=C2\SC(=O)NC2=O)n1` [compound 87], the IC50 in assay [1] was 80 nM; in assay [2], 263 nM; in assay [3] it was 261 nM; in assay [4], 295 nM.

Consider `O=C1NC(=O)/C(=C/c2ccnc(N3CCc4[nH]c5ccccc5c4C3)n2)S1` [compound 91], for which the IC50 is 127 nM in assay [1], 1000 nM in assay [2], 222 nM in assay [3] and 255 nM in assay [4].

As to `O=C1NC(=O)/C(=C/c2ccnc(NCC3CCNCC3)n2)S1` [compound 147], the IC50 in assay [1] came to 90 nM; in assay [2], 31 nM; in assay [3], 134 nM; in assay [4] it was 258 nM.

In the case of `CN(CC1CCNCC1)c1nccc(/C=C2\SC(=O)NC2=O)n1` [compound 151], the IC50 in assay [1] is 98 nM; in assay [2], 171 nM; in assay [3], 415 nM; in assay [4], 246 nM.

On to `O=C1NC(=O)/C(=C/c2ccnc(N3CCC(CNCC4CCN4)CC3)n2)S1` (stereo not drawn) [compound 208], for which the IC50 is 43 nM in assay [1], 65 nM in assay [2], 129 nM in assay [3] and 288 nM in assay [4].

With `CN(c1nccc(/C=C2\SC(=O)NC2=O)n1)C1CCCCC1` [compound 119], the IC50 in assay [1] stood at 16 nM; in assay [2], 267 nM; in assay [3], 176 nM; in assay [4] it was 186 nM.

Regarding `Cc1cccc(CNCC2CCN(c3nccc(/C=C4\SC(=O)NC4=O)n3)CC2)n1` [compound 174], the IC50 in assay [1] was found to be 75 nM; in assay [2], 16 nM; in assay [4] it was 58 nM.

Consider `CN1CCC(CNc2nccc(/C=C3\SC(=O)NC3=O)n2)CC1` [compound 92], for which the IC50 in assay [1] stood at 228 nM; in assay [2], 31 nM; in assay [3], 186 nM; in assay [4] it was 628 nM.

On to `O=C1NC(=O)/C(=C/c2ccnc(N3CCC(CO)CC3)n2)S1` [compound 98], for which the IC50 came out at 136 nM in assay [1], 169 nM in assay [2], 422 nM in assay [3] and 204 nM in assay [4].

As for `O=C1NC(=O)/C(=C/c2ccnc(N3CCC(CNCc4ccncc4)CC3)n2)S1` [compound 177], the IC50 turned out to be 87 nM in assay [1], 22 nM in assay [2], 705 nM in assay [3] and 96 nM in assay [4].

With `Nc1ccc2c(c1)CN(c1nccc(/C=C3\SC(=O)NC3=O)n1)CC2` [compound 90], the IC50 in assay [1] came out at 89 nM; in assay [2] it was 419 nM; in assay [3] it was 291 nM; in assay [4], 97 nM.

Regarding `CC1CCCN(c2nccc(/C=C3\SC(=O)NC3=O)n2)C1` (stereo not drawn) [compound 117], the values for the IC50 in assay [1], in assay [2] and in assay [4] were 50 nM, 436 nM and 164 nM, respectively.

Regarding `CN(c1nccc(/C=C2\SC(=O)NC2=O)n1)[C@H]1CCCNC1` [compound 143], the IC50 in assay [1] was found to be 5 nM; in assay [2], 3 nM; in assay [3], 66 nM; in assay [4] it was 20 nM.

As for `O=C1NC(=O)/C(=C/c2ccnc(N3CCC(CNc4ccc5ccccc5n4)CC3)n2)S1` [compound 219], the IC50 in assay [1] is 146 nM; in assay [2] it was 249 nM; in assay [3], 476 nM; in assay [4] it was 475 nM.

Take `O=C1NC(=O)/C(=C/c2ccnc(N3CCC(CNCc4cccc(-c5ccc(F)cc5)n4)CC3)n2)S1` [compound 204]: the IC50 in assay [1] worked out at 217 nM; in assay [2], 109 nM; in assay [4], 99 nM.
